From PMC9942557, “Bolaamphiphile Analogues of 12-bis-THA Cl2 Are Potent Antimicrobial Therapeutics with Distinct Mechanisms of Action against Bacterial, Mycobacterial, and Fungal Pathogens” (mSphere, 2022) come the findings set out here.

Like-named read-outs stand apart in the source and are kept apart here.

The test system of assay [1] is EMRSA-15. The assay is classed as in vivo, Galleria mellonella.
The test system of assay [2] is Klebsiella pneumoniae NCTC 13368. The experiment in a line: Broth microdilution MIC. The assay is classed as cell-based.
Assay [3] concerns Acinetobacter baumannii AYE. The experiment in a line: Broth microdilution MIC. The assay is classed as cell-based. The settings on record: Acinetobacter baumannii AYE.
Assay [4] has as its system VR Enterococcus faecalis NCTC 12201. The experiment in a line: Broth microdilution MIC. The assay is classed as cell-based. The settings on record: VR Enterococcus faecalis NCTC 12201.
For assay [5], the system named is Pseudomonas aeruginosa PAO1. The experiment in a line: Broth microdilution MIC. The assay is classed as cell-based.
Assay [6] deals with C. glabrata 8018. The experiment in a line: Broth microdilution MIC. The settings on record: C. glabrata 8018. The assay is classed as cell-based.
Assay [7] deals with VR Enterococcus faecium NCTC 12204. The experiment in a line: Broth microdilution MIC. The assay is classed as cell-based. The following applies: VR Enterococcus faecium NCTC 12204.
Assay [8] concerns C. albicans 3281. The experiment in a line: Broth microdilution MIC. The assay is classed as cell-based, Candida albicans. The following applies: C. albicans 3281.
The test system of assay [9] is VS Enterococcus faecalis NCTC 775. The experiment in a line: Broth microdilution MIC. The assay is classed as cell-based.
In assay [10] the test system is M. tuberculosis Bleupan. The experiment in a line: microbe, parasite or virus in culture. The assay is classed as cell-based, Mycobacterium tuberculosis.
Assay [11] relates to HEK293. The experiment in a line: In vitro toxicity for cell line. The assay is classed as cell-based, human. The settings on record: HEK293; average ± standard error from 3 independent repeats. The source says:
(§1) TABLE 2 Toxicity of bolaamphiphiles for two cell lines^a | column: Toxicity (EC50 [μg/ml]) of: / 12-bis-THA Cl2; Toxicity (EC50 [μg/ml]) of: / Dequalinium; Toxicity (EC50 [μg/ml]) of: / Quino-bola; Toxicity (EC50 [μg/ml]) of: / Penta-bola; Toxicity (EC50 [μg/ml]) of: / Hepta-bola; Toxicity (EC50 [μg/ml]) of: / Octa-bola; Toxicity (EC50 [μg/ml]) of: / Octa-C10; Toxicity (EC50 [μg/ml]) of: / Octa-C8; Toxicity (EC50 [μg/ml]) of: / Octa-C6

The subject of assay [12] is HeLa. The experiment in a line: In vitro toxicity for cell line. The assay is classed as cell-based, human. The settings on record: average ± standard error from 3 independent repeats.
Excerpt: as §1

Assay [13] deals with C. parapsilosis. The experiment in a line: Broth microdilution MIC. The assay is classed as cell-based.
Assay [14] relates to EMR Staphylococcus aureus 16 NCTC 13277. The experiment in a line: Broth microdilution MIC. The settings on record: EMR Staphylococcus aureus 16 NCTC 13277. The assay is classed as cell-based.
Assay [15] has as its system EMR Staphylococcus aureus 15 NCTC 13616. The experiment in a line: Broth microdilution MIC. The assay is classed as cell-based. The following applies: EMR Staphylococcus aureus 15 NCTC 13616.
In assay [16] the test system is C. albicans 3179. The experiment in a line: Broth microdilution MIC. The assay is classed as cell-based, Candida albicans. The following applies: C. albicans 3179.
The test system of assay [17] is Klebsiella pneumoniae M6. The experiment in a line: Broth microdilution MIC. The assay is classed as cell-based.
Assay [18] relates to C. parapsilosis 3209. The experiment in a line: Broth microdilution MIC. The assay is classed as cell-based.
The subject of assay [19] is Acinetobacter baumannii ATCC 17978. The experiment in a line: Broth microdilution MIC. The assay is classed as cell-based.
Assay [20] deals with C. auris temp probe. The experiment in a line: Broth microdilution MIC. The assay is classed as cell-based, Candida auris. The settings on record: C. auris temp probe.
Assay [21] relates to Escherichia coli NCTC 12923. The experiment in a line: Broth microdilution MIC. The assay is classed as cell-based.
The test system of assay [22] is Pseudomonas aeruginosa NCTC 13437. The experiment in a line: Broth microdilution MIC. The assay is classed as cell-based.
In assay [23] the test system is C. tropicalis 8760. The experiment in a line: Broth microdilution MIC. The assay is classed as cell-based. The settings on record: C. tropicalis 8760.
The test system of assay [24] is C. krusei 3876. The experiment in a line: Broth microdilution MIC. The assay is classed as cell-based.
In assay [25] the test system is M. smegmatis mc^2 155. The experiment in a line: Broth microdilution MIC (Middlebrook 7H9). The assay is classed as cell-based, Mycobacterium smegmatis.
The subject of assay [26] is Ac. pleuropneumoniae 2331. The experiment in a line: Checkerboard synergy assay (BHI, 5% FBS, 0.01% NAD). The assay is classed as cell-based, Actinobacillus pleuropneumoniae.
In assay [27] the test system is Ac. pleuropneumoniae Shope. The assay is described as above. The assay is classed as cell-based, Actinobacillus pleuropneumoniae.
Assay [28] deals with Ac. pleuropneumoniae 2356. The assay is described as above. The assay is classed as cell-based, Actinobacillus pleuropneumoniae.
The test system of assay [29] is Ac. pleuropneumoniae 3370. The description is as above. The assay is classed as cell-based, Actinobacillus pleuropneumoniae.
Assay [30] concerns K. pneumoniae NCTC 13368. The experiment in a line: Fixed-concentration (0.25× MIC bolalipid) synergy broth microdilution. The assay is classed as cell-based, Klebsiella pneumoniae. The settings on record: for MIC of aminoglycoside: K. pneumoniae NCTC 13368; for MIC: Klebsiella pneumoniae.
Assay [31] has as its system P. aeruginosa NCTC 13437. The assay is described as above. The assay is classed as cell-based, Pseudomonas aeruginosa. The following applies: Pseudomonas aeruginosa, NCTC13437, P. aeruginosa NCTC 13437, read-out: MIC of aminoglycoside.
For assay [32], the system named is E. coli NCTC 12923. Described as above. The assay is classed as cell-based. The following applies: Escherichia coli, NCTC12923, E. coli NCTC 12923, read-out: MIC of aminoglycoside.
Assay [33] has as its system A. baumannii ATCC 17978. Described as above. The assay is classed as cell-based. The following applies: Acinetobacter baumannii, ATCC17978, A. baumannii ATCC 17978, read-out: MIC of aminoglycoside.
The subject of assay [34] is K. pneumoniae M6. The description is as above. The assay is classed as cell-based. The following applies: Klebsiella pneumoniae.
For assay [35], the system named is P. aeruginosa PAO1. The description is as above. The assay is classed as cell-based, Pseudomonas aeruginosa. The settings on record: Pseudomonas aeruginosa, PAO1, P. aeruginosa PAO1, read-out: MIC of aminoglycoside.
Assay [36] concerns A. baumannii ATCC 17978. The experiment in a line: G. mellonella burn wound infection model. The assay is classed as in vivo, Galleria mellonella. The settings on record: alone. The source says:
In addition to the intrahemocoelic infection/therapy models described above, a recently described G. mellonella burn wound model was adopted ([37]). The burn was created using the flat head of a nail, which was heated in a blue Bunsen burner flame until red hot, cooled for 15 s, and superficially applied for 2 s to generate a 2-mm^2 burn. Larvae were then infected with a single colony of A. baumannii ATCC 17978 applied directly to the burn site, or sterile phosphate-buffered saline was applied as a control. Treatment was applied topically 1 h after infection in a volume of 5 μL. Survival was monitored over 96 h.

Assay [37] concerns A. baumannii AYE. The experiment in a line: Fixed-concentration (0.25× MIC bolalipid) synergy broth microdilution. The settings on record: Acinetobacter baumannii. The assay is classed as cell-based.
The mark [38] stands for this setting: in the presence of 0.25× MIC Octa-C6.
Setting [39] is: in the presence of 0.25× MIC Octa-C10.
Where [40] appears, read: in the presence of 0.25× MIC Octa-Bola.
Where [41] appears, read: No bola, read-out: MIC of aminoglycoside.
Setting [42] is: in the presence of 0.25× MIC Octa-Bola, read-out: MIC of aminoglycoside.
Setting [43] is: in the presence of 0.25× MIC Octa-C6, read-out: MIC of aminoglycoside.
The mark [44] stands for this setting: in the presence of 0.25× MIC Octa-C10, read-out: MIC of aminoglycoside.

Turning to `CN[C@H](CC(C)C)C(=O)N[C@H]1C(=O)N[C@@H](CC(N)=O)C(=O)N[C@H]2C(=O)N[C@H]3C(=O)N[C@H](C(=O)N[C@H](C(=O)O)c4cc(O)cc(O)c4-c4cc3ccc4O)[C@H](O)c3ccc(c(Cl)c3)Oc3cc2cc(c3O[C@@H]2O[C@H](CO)[C@@H](O)[C@H](O)[C@H]2O[C@H]2C[C@](C)(N)[C@H](O)[C@H](C)O2)Oc2ccc(cc2Cl)[C@H]1O` [Vancomycin, reference compound], the infected larvae rescued in [1] (50 mg/kg, single injection 2 h postinfection) is approximately 80%; in assay [1] (a tenth of 50 mg/kg dose), 45%.

Regarding `Nc1c2c([n+](CCCCCCCC[n+]3c4c(c(N)c5ccccc53)CCCCCC4)c3ccccc13)CCCCCC2` [Octa-C8], the MIC in assay [2] came out at 32 µg/mL; in assay [3] it was 32 µg/mL; in [4], 4 µg/mL; in assay [5], 32 µg/mL; in assay [6] it was 2 µg/mL; in [7], 0.5 µg/mL. Moreover, the MIC in assay [8] was 2 µg/mL; in [9], 4 µg/mL; in assay [10] it was 0.49 µg/mL; in assay [13], 8 µg/mL; in assay [14] it was 1 µg/mL; in [15], 1 µg/mL. The MIC in assay [16] stood at 2 µg/mL; in [17], 32 µg/mL; in assay [18], 4 µg/mL; in assay [19] it was 32 µg/mL; in [20] it was 4 µg/mL; in [21] it was 8 µg/mL. For the same compound, the MIC was determined as 32 µg/mL in assay [22], 1 µg/mL in assay [23], 4 µg/mL in assay [24] and 0.19 µg/mL in assay [25]. The “Toxicity (EC50)” value in [11] was 12.9 ± 4.3 µg/mL; in [12], 27.3 ± 1.3 µg/mL.

Take `CCN1CCN(c2cc3c(cc2F)c(=O)c(C(=O)O)cn3C2CC2)CC1` [enrofloxacin, reference compound]: the “MIC alone Antibiotic” value in assay [26] (Octa-C10/enrofloxacin), in assay [27] (Octa-C10/enrofloxacin), in assay [28] (Octa-C10/enrofloxacin) and in [29] (Octa-C10/enrofloxacin) was 0.125 µg/mL each time.

With `CNC(C)C1CCC(N)C(OC2C(N)CC(N)C(OC3OCC(C)(O)C(NC)C3O)C2O)O1` (stereo not shown) [Gentamicin], the MIC of aminoglycoside in [30] (setting [38]) and in assay [30] (setting [39]) was 16 µg/mL in each case. Moreover, the MIC was found to be 8 µg/mL in [30] (NCTC13368, K. pneumoniae NCTC 13368, in the presence of 0.25× MIC Octa-Bola, read-out: MIC of aminoglycoside); 16 µg/mL in assay [30] (NCTC13368, read-out: MIC of aminoglycoside); 256 µg/mL in assay [31] (No bola); 8 µg/mL in assay [31] (setting [40]); 8 µg/mL in assay [31] (setting [38]); 8 µg/mL in assay [31] (setting [39]). The MIC is 2 µg/mL in assay [32] (No bola); 2 µg/mL in [32] (setting [40]); 2 µg/mL in assay [32] (setting [38]); 1 µg/mL in assay [32] (setting [39]); 2 µg/mL in [33] (No bola); 0.25 µg/mL in assay [33] (setting [40]). Also, the MIC in assay [33] (setting [38]), in [33] (setting [39]), in [34] (setting [41]), in assay [34] (setting [42]), in assay [34] (setting [43]) and in assay [34] (setting [44]) was 1 µg/mL throughout. Moreover, the MIC came out at 2 µg/mL in [35] (No bola); 0.5 µg/mL in assay [35] (setting [40]); 0.25 µg/mL in assay [35] (setting [38]); 0.25 µg/mL in assay [35] (setting [39]); 256 µg/mL in [37] (setting [41]); 0.5 µg/mL in assay [37] (setting [42]). In addition, the MIC was determined as 32 µg/mL in [37] (setting [43]) and 4 µg/mL in assay [37] (setting [44]). In assay [36] (5 mg/kg topical, 96 h), this compound had a larvae rescued of 76%. The protection result in assay [36] (lower doses (2.5 and 1.25 mg/kg)) is “ineffective”.

For the compound `[H]/N=C(/N)N[C@H]1[C@H](O)[C@@H](O)[C@H](O[C@@H]2O[C@@H](C)[C@](O)(C=O)[C@H]2O[C@@H]2O[C@@H](CO)[C@H](O)[C@@H](O)[C@@H]2NC)[C@@H](N/C(N)=N\[H])[C@@H]1O` [streptomycin, reference compound], the “MIC alone Antibiotic” value in assay [26] (Octa-C10/streptomycin) is 32 µg/mL; in assay [27] (Octa-C10/streptomycin), 32 to 64 µg/mL; in assay [28] (Octa-C10/streptomycin), 64 µg/mL; in assay [29] (Octa-C10/streptomycin), 16 to 64 µg/mL.
